From publication PMC6269967, “Evaluation of the Interaction between Long Telomeric DNA and Macrocyclic Hexaoxazole (6OTD) Dimer of a G-quadruplex Ligand” (Molecules, 2013)
Like-named read-outs stand apart in the source and are kept apart here.

Experiments:
telo24 [1] = details: earlier work of the authors, reference not given; cited from earlier work
Description: (§1) For evaluations of interaction and stabilization of telomeric DNA with G4 ligands, telo24 DNA, i.e., four sets of (TTAGGG) repeats consisting of 24 bases in total, has been usually used as a telomeric DNA model, because it is a minimum length able to form one unit of G4 structure.

[2] = test system: long telomeric DNAs telo48, 72, and 96; details: ref [53]; cited from earlier work
Description: as §1

telo48 = details: CD at 295 nm, 50 mM Tris–HCl pH 7.5, 100 mM KCl, ref [53], cited from earlier work
Description: (§2) Table 1 Tm values (°C) of telomeric DNAs in the absence or presence of G4 ligands 2 and 3 ^a,b,c. | column: Tm

telo24 [3] = details: telo24 (10 μM), ligand 4 eq.; CD at 295 nm, 50 mM Tris–HCl pH 7.5, 100 mM KCl; 1.0 °C/min; ligand-free Tm 59; ref [53]; cited from earlier work
Description: as §2

telomerase [4] = assay: Telomerase repeat amplification protocol (TRAP) assay, cell-free, PC3 cell lysate; type: biochemical; details: telomerase reaction 30 min, 20 °C, average of two independent experiments, read-out: telomerase inhibitory activity, IC50
Protocol: Finally, we examined the telomerase inhibitory activities of the L2H2-6OTD monomer (2) and its dimer 3 in a cell-free system by telomerase repeat amplification protocol (TRAP) assay using PC3 cell lysate. Telomerase is known to elongate various lengths of telomere sequences, and the stabilization ability of each ligand can be evaluated with TRAP assay.
Telomerase repeat amplification protocol (TRAP) assays were conducted as follows; 1 × 10^5 of PC3 cells were lysed with 200 μL of TRAP lysis buffer, placed on ice for 30 min, and centrifuged for 20 min (15,000 rpm, 4 °C). This TRAP lysate (2.0 μL) was mixed with 10×T-PCR buffer (5.0 μL), 2.5 mM dNTPs (1.0 μL), 50 ng/μL TS primer (5'-d[AATCCGTCGAGCAGAGTT]-3', 2.0 μL), 0.2 pM TSNT (5'-d[[…]]-3', 0.5 μL), DEPC (Diethylpyro carbonate) solution in MilliQ water (30 μL), compounds (DMSO solution, 5.0 μL), and placed on ice for 30 min. After the telomerase reactions (30 min, 20 °C), the reacting solution was placed on ice, 2.0 μL of 10 μM NT primer (5'-d[ATCGCTTCTCGGCCTTTT]-3’), 2.0 μL of […] (5'-d[GCGCGG (CTTACC)3CTAACC]-3') and 0.5 μL of Gene Taq (Nippon Gene, Tokyo, Japan) were added. The three-step PCR was performed: 27 cycles of 94 °C for 25 s, 50 °C for 25 s, and 72 °C for 45 s. […] IC50 value was calculated from average of two independent experiments.

telomerase [5] = details: TRAP assay; ref [17],[18],[19],[20],[21],[22]; read-out: telomerase inhibitory activity, IC50; cited from earlier work
Description: At the end of chromosomes, there exists a characteristic region called the telomere. The telomere is composed of double-stranded tandem repeats of (TTAGGG/AATCCC)n sequence amounting to 2–30 kb, to which telomere binding proteins are bound. These sequences are shortened at each cell division, ultimately inducing cell senescence. At the extreme end of these duplex repeats there is a single-stranded 3' overhang, termed the 3' G-tail, consisting of ca. 50−250 nucleotides in total. The G-tail sequence is considered to form G-quadruplexes (G4s), one of the higher-order structures ...

SMILES	interaction mode (telo24 [1])	interaction mode [2]	Tm (telo48; DNA printed telo48 (fourth group), ligand 16 eq., ligand-free Tm 55) [°C]	Tm (telo48; DNA printed telo48 (third group), ligand 12 eq., ligand-free Tm 55) [°C]	Tm (telo48; telo48, ligand 8 eq., 1.0 °C/min, ligand-free Tm 57) [°C]	Tm (telo24 [3]) [°C]	IC50 (telomerase [4]) [nM]	IC50 (telomerase [5]) [nM]
NCCCC[C@@H]1NC(=O)c2coc(n2)-c2coc(n2)-c2coc(n2)[C@H](CCCCN)NC(=O)c2coc(n2)-c2coc(n2)-c2coc1n2 [compound 2]	strongly interacts with telo24 to form anti-parallel-type G4 structure in an end-stacking mode with two molecules of 2	each telo24 unit in the long telomeric DNAs interacted with two molecules of L2H2-6OTD (2) in an end-stacking mode, and were induced to take anti-parallel-type topology	70	73	76	75	15	–
Cc1oc2nc1-c1nc(co1)-c1nc(co1)-c1nc(co1)-c1nc(co1)-c1nc(co1)C1=NC(CS1)c1nc-2c(C)o1 (centres unmarked) [telomestatin]	–	–	–	–	–	–	–	5
